In publication PMC11062899, “De novo development of small cyclic peptides that are orally bioavailable” (Nature Chemical Biology, 2023):
“And” between values parts separate entries of the source, which are not always exact repeats. Equal values may be shown once.

How the values were obtained:
human α-thrombin = human α-thrombin (Homo sapiens, UniProt P00734); assay: Protease inhibition, Ki for human α-thrombin (fluorogenic substrate Z-Gly-Gly-Arg-AMC); format: biochemical; settings: replicates R1-R3
Procedure, shortened: (§1)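 Inhibition was measured as AMC fluorescence from 50 μM substrate, monitored for 30 min at 25 °C, relative to a peptide-free control. Human and rat enzymes were present at 2 nM and 3 nM final, respectively, in 50 mM Tris-HCl pH 7.4, 150 mM NaCl, 10 mM MgCl2, 1 mM CaCl2. Ki derives from fitted IC50 via Cheng–Prusoff.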

rat α-thrombin = target: T1, rat α-thrombin (Rattus norvegicus, UniProt P18292); assay: Protease inhibition, Ki for rat α-thrombin (fluorogenic substrate Z-Gly-Gly-Arg-AMC); format: biochemical; settings: replicates R1-R3
T1 construct: rat α-thrombin (Molecular Innovations) were used at final concentrations of 2 nM and 3 nM; purchased Molecular Innovations
Procedure, shortened: as §1

porcine pepsin = target: T2, porcine pepsin (Sus scrofa, UniProt P00791); assay: Peptide stability in simulated gastric fluid (SGF); format: in vitro ADME; settings: for SGF stability, Residual peptide Average / SGF stability, Residual peptide: after 8 h vs 0 h (TIC); for SGF stability, Residual peptide Average: average of R1-R3; for SGF stability, Residual peptide: single replicates R1-R3; for remaining at 8 h: simulated gi fluid, 37 °C, pH 1.2, read-out: Proteolytic stability: SGF (8 h) % remaining
T2 construct: 0.32 g of porcine pepsin (Sigma-Aldrich, P7125) was dissolved under gentle agitation; purchased Sigma-Aldrich P7125
Procedure, shortened: (§2)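 Peptide from a 1 mM DMSO stock was added to fluid pre-warmed at 37 °C. SGF was pH 1.2 NaCl with porcine pepsin (0.32 g per 100 ml), and SIF was pH 6.8 potassium phosphate with porcine pancreatin (1 g per 100 ml). Supernatant peptide was quantified by LC–MS, with residual expressed as T1/T0.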

[1] = Passive artificial membrane permeability (PAMPA); settings: for PAMPA permeability: % permeability: 50 μM, 12–18 h, acceptor concentration relative to equilibrium; for Papp at 50 μM / Permeability% Average / Permeability% R1 / Permeability% R3: PAMPA; for Papp at 50 μM: pH 7.4; for Permeability% Average: average of R1-R3; for Permeability% R1: replicate R1; for Permeability% R1 / Permeability% R3: TIC of top well sample relative to sample at theoretical equilibrium; for Permeability% R3: replicate R3
[2] = Metabolic stability in rat liver microsomes (RLMs); settings: rat, microsomes
porcine pancreatin = assay: Peptide stability in simulated intestinal fluid (SIF); format: in vitro ADME; settings: after 8 h vs 0 h (TIC); for SIF stability, Residual peptide Average: average of R1-R3
Procedure, shortened: as §2

[3] = as above; format: in vitro ADME, porcine; settings: simulated gi fluid; 8 h, 37 °C, pH 6.8; read-out: Proteolytic stability: SIF (8 h) % remaining
Procedure, shortened: as §2

[4] = peptide 1.33E+02 uM, slope of proteolytic substrate cleavage over time
[5] = CL (ul/min/mg protein) R1, RLM CL, replicate R1
[6] = CL (ul/min/mg protein) R2, RLM CL, replicate R2
[7] = CL (ul/min/mg protein) R3, RLM CL, replicate R3
[8] = Half Life (min) R1, RLM metabolic stability, replicate R1, 0-60 min
[9] = Half Life (min) R2, RLM metabolic stability, replicate R2, 0-60 min
[10] = Half Life (min) R3, RLM metabolic stability, replicate R3, 0-60 min
[11] = Metabolic stability: RLM CL (ul/min/mg), RLMs, mean and SD, three measurements

T2 sequence (P00791 60-385): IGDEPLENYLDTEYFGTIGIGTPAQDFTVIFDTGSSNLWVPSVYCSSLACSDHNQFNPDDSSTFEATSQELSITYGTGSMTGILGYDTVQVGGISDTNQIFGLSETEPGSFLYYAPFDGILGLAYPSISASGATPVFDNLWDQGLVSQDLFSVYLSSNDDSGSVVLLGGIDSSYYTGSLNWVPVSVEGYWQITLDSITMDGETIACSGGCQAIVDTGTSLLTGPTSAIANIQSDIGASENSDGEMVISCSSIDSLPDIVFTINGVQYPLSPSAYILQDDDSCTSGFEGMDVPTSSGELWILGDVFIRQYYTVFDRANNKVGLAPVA

## O=C(N[C@H]1CSCc2cccc(n2)CSCCNC(=O)[C@H](Cc2c[nH]cn2)NC(=O)C2(CCCC2)NC1=O)c1ccc(Cl)s1 [compound 29]
Human α-thrombin; peptide 1.02E-03 uM
  Human alpha thrombin inhibition, slope normalized to DMSO: 85.3 and 95.8 and 95.4
Human α-thrombin; peptide 1.04E+00 uM
  Human alpha thrombin inhibition, slope normalized to DMSO: 95.4 and 93.0 and 98.3
Human α-thrombin; peptide 1.27E-04 uM
  Human alpha thrombin inhibition, slope normalized to DMSO: 99.0 and 98.5 and 95.5
Human α-thrombin; peptide 1.30E-01 uM
  Human alpha thrombin inhibition, slope normalized to DMSO: 95.8 and 97.3 and 101.8
Human α-thrombin; [4]
  Human alpha thrombin inhibition, slope normalized to DMSO: 27.0 and 31.2 and 38.6
Human α-thrombin; peptide 1.63E-02 uM
  Human alpha thrombin inhibition, slope normalized to DMSO: 73.4 and 96.6 and 101.4
Human α-thrombin; peptide 1.67E+01 uM
  Human alpha thrombin inhibition, slope normalized to DMSO: 71.8 and 71.9 and 74.8
Human α-thrombin; peptide 2.03E-03 uM
  Human alpha thrombin inhibition, slope normalized to DMSO: 97.6 and 95.9 and 99.5
Human α-thrombin; peptide 2.08E+00 uM
  Human alpha thrombin inhibition, slope normalized to DMSO: 93.5 and 84.6 and 95.9
Human α-thrombin; peptide 2.54E-04 uM
  Human alpha thrombin inhibition, slope normalized to DMSO: 96.0 and 96.2 and 102.6
Human α-thrombin; peptide 2.60E-01 uM
  Human alpha thrombin inhibition, slope normalized to DMSO: 94.7 and 95.0 and 96.9
Human α-thrombin; peptide 3.18E-05 uM
  Human alpha thrombin inhibition, slope normalized to DMSO: 99.1 and 98.5 and 101.4
Human α-thrombin; peptide 3.26E-02 uM
  Human alpha thrombin inhibition, slope normalized to DMSO: 99.8 and 95.1 and 95.9
Human α-thrombin; peptide 3.33E+01 uM
  Human alpha thrombin inhibition, slope normalized to DMSO: 58.8 and 60.9 and 67.1
Human α-thrombin; peptide 4.07E-03 uM
  Human alpha thrombin inhibition, slope normalized to DMSO: 99.1 and 95.8 and 99.3
Human α-thrombin; peptide 4.17E+00 uM
  Human alpha thrombin inhibition, slope normalized to DMSO: 86.3 and 86.6 and 97.3
Human α-thrombin; peptide 5.09E-04 uM
  Human alpha thrombin inhibition, slope normalized to DMSO: 101.5 and 95.7 and 97.4
Human α-thrombin; peptide 5.21E-01 uM
  Human alpha thrombin inhibition, slope normalized to DMSO: 92.8 and 93.8 and 98.4
Human α-thrombin; peptide 6.36E-05 uM
  Human alpha thrombin inhibition, slope normalized to DMSO: 106.0 and 98.0 and 105.2
Human α-thrombin; peptide 6.51E-02 uM
  Human alpha thrombin inhibition, slope normalized to DMSO: 96.1 and 98.8 and 99.3
Human α-thrombin; peptide 6.67E+01 uM
  Human alpha thrombin inhibition, slope normalized to DMSO: 48.6 and 47.5 and 55.0
Human α-thrombin; peptide 8.14E-03 uM
  Human alpha thrombin inhibition, slope normalized to DMSO: 95.7 and 98.2 and 99.1
Human α-thrombin; peptide 8.33E+00 uM
  Human alpha thrombin inhibition, slope normalized to DMSO: 83.7 and 83.2 and 97.0
Rat α-thrombin; [4]
  Rat alpha thrombin inhibition, slope normalized to DMSO: 11.0 and 10.6 and 9.7
Rat α-thrombin; peptide 1.67E+01 uM
  Rat alpha thrombin inhibition, slope normalized to DMSO: 45.8 and 45.5 and 45.1
Rat α-thrombin; peptide 2.08E+00 uM
  Rat alpha thrombin inhibition, slope normalized to DMSO: 86.8 and 87.3 and 87.0
Rat α-thrombin; peptide 3.33E+01 uM
  Rat alpha thrombin inhibition, slope normalized to DMSO: 28.5 and 28.7 and 27.9
Rat α-thrombin; peptide 4.17E+00 uM
  Rat alpha thrombin inhibition, slope normalized to DMSO: 77.5 and 87.0 and 76.0
Rat α-thrombin; peptide 6.67E+01 uM
  Rat alpha thrombin inhibition, slope normalized to DMSO: 19.6 and 18.1 and 18.5
Rat α-thrombin; peptide 8.33E+00 uM
  Rat alpha thrombin inhibition, slope normalized to DMSO: 63.7 and 62.1 and 64.2
Porcine pepsin
  SGF stability, Residual peptide Average: 100.77
  SGF stability, Residual peptide: 105.91 and 102.30 and 94.11
  remaining at 8 h: 101 ± 8%
[1]
  PAMPA permeability: % permeability: 0.16 ± 0.08%
  Papp at 50 μM: 0.00933 ×10⁻⁶ cm/s
  Permeability% Average: 0.157%
  Permeability% R1: 0.22%
  Permeability% R3: 0.18%
[2]; [5]
  microsomal CLint: 10.5 µL/min/mg
[2]; [6]
  microsomal CLint: 5.63 µL/min/mg
[2]; [7]
  microsomal CLint: 8.11 µL/min/mg
[2]; [8]
  half-life: > 60 min
[2]; [9]
  half-life: > 60 min
[2]; [10]
  half-life: > 60 min
[2]; [11]
  microsomal CLint: 8.1 ± 2 µL/min/mg
Porcine pancreatin
  SIF stability, Residual peptide Average: 92.07
Porcine pancreatin; single replicates R1-R3
  SIF stability, Residual peptide: 101.03 and 73.69 and 101.48
[3]
  remaining at 8 h: 92 ± 16%

## C[C@@H]1NC(=O)[C@@H](NC(=O)c2ccc(Cl)s2)CSCc2cccc(n2)CSCCNC(=O)[C@H]2CCCN(C2)C1=O [compound 30]
Human α-thrombin; peptide 1.02E-03 uM
  Human alpha thrombin inhibition, slope normalized to DMSO: 97.2 and 97.6 and 106.2
Human α-thrombin; peptide 1.04E+00 uM
  Human alpha thrombin inhibition, slope normalized to DMSO: 103.4 and 89.3 and 97.4
Human α-thrombin; peptide 1.27E-04 uM
  Human alpha thrombin inhibition, slope normalized to DMSO: 101.8 and 96.4 and 101.4
Human α-thrombin; peptide 1.30E-01 uM
  Human alpha thrombin inhibition, slope normalized to DMSO: 98.9 and 98.3 and 91.7
Human α-thrombin; [4]
  Human alpha thrombin inhibition, slope normalized to DMSO: 9.7 and 9.3 and 8.4
Human α-thrombin; peptide 1.63E-02 uM
  Human alpha thrombin inhibition, slope normalized to DMSO: 113.9 and 97.8 and 107.6
Human α-thrombin; peptide 1.67E+01 uM
  Human alpha thrombin inhibition, slope normalized to DMSO: 44.4 and 39.7 and 38.9
Human α-thrombin; peptide 2.03E-03 uM
  Human alpha thrombin inhibition, slope normalized to DMSO: 93.3 and 95.3 and 103.2
Human α-thrombin; peptide 2.08E+00 uM
  Human alpha thrombin inhibition, slope normalized to DMSO: 83.8 and 81.0 and 85.8
Human α-thrombin; peptide 2.54E-04 uM
  Human alpha thrombin inhibition, slope normalized to DMSO: 101.0 and 97.7 and 100.6
Human α-thrombin; peptide 2.60E-01 uM
  Human alpha thrombin inhibition, slope normalized to DMSO: 90.3 and 93.2 and 100.5
Human α-thrombin; peptide 3.18E-05 uM
  Human alpha thrombin inhibition, slope normalized to DMSO: 99.8 (2×) and 101.6
Human α-thrombin; peptide 3.26E-02 uM
  Human alpha thrombin inhibition, slope normalized to DMSO: 100.2 and 97.8 and 102.0
Human α-thrombin; peptide 3.33E+01 uM
  Human alpha thrombin inhibition, slope normalized to DMSO: 26.4 and 25.5 and 27.5
Human α-thrombin; peptide 4.07E-03 uM
  Human alpha thrombin inhibition, slope normalized to DMSO: 95.7 and 98.6 and 101.8
Human α-thrombin; peptide 4.17E+00 uM
  Human alpha thrombin inhibition, slope normalized to DMSO: 69.5 and 72.8 and 72.6
Human α-thrombin; peptide 5.09E-04 uM
  Human alpha thrombin inhibition, slope normalized to DMSO: 102.0 and 99.0 and 102.1
Human α-thrombin; peptide 5.21E-01 uM
  Human alpha thrombin inhibition, slope normalized to DMSO: 99.3 and 95.3 and 96.7
Human α-thrombin; peptide 6.36E-05 uM
  Human alpha thrombin inhibition, slope normalized to DMSO: 99.5 and 97.8 and 101.1
Human α-thrombin; peptide 6.51E-02 uM
  Human alpha thrombin inhibition, slope normalized to DMSO: 101.0 and 91.1 and 103.2
Human α-thrombin; peptide 6.67E+01 uM
  Human alpha thrombin inhibition, slope normalized to DMSO: 19.9 and 15.0 and 20.8
Human α-thrombin; peptide 8.14E-03 uM
  Human alpha thrombin inhibition, slope normalized to DMSO: 100.5 and 116.6 and 101.1
Human α-thrombin; peptide 8.33E+00 uM
  Human alpha thrombin inhibition, slope normalized to DMSO: 63.9 and 57.2 and 56.3
Rat α-thrombin; [4]
  Rat alpha thrombin inhibition, slope normalized to DMSO: 3.2 and 3.1 and 10.4
Rat α-thrombin; peptide 1.67E+01 uM
  Rat alpha thrombin inhibition, slope normalized to DMSO: 16.1 and 15.2 and 20.3
Rat α-thrombin; peptide 2.08E+00 uM
  Rat alpha thrombin inhibition, slope normalized to DMSO: 58.5 and 59.8 and 48.9
Rat α-thrombin; peptide 3.33E+01 uM
  Rat alpha thrombin inhibition, slope normalized to DMSO: 8.9 (2×) and 15.3
Rat α-thrombin; peptide 4.17E+00 uM
  Rat alpha thrombin inhibition, slope normalized to DMSO: 40.8 and 42.9 and 35.9
Rat α-thrombin; peptide 6.67E+01 uM
  Rat alpha thrombin inhibition, slope normalized to DMSO: 5.0 and 4.9 and 12.1
Rat α-thrombin; peptide 8.33E+00 uM
  Rat alpha thrombin inhibition, slope normalized to DMSO: 24.7 and 27.2 and 32.3
Porcine pepsin
  SGF stability, Residual peptide Average: 90.24
  SGF stability, Residual peptide: 101.78 and 81.27 and 87.66
  remaining at 8 h: 90 ± 10%
[1]
  PAMPA permeability: % permeability: 27 ± 1%
  Papp at 50 μM: 2.14 ×10⁻⁶ cm/s
  Permeability% Average: 27.4%
  Permeability% R1: 28.09%
  Permeability% R3: 26.42%
[2]; [5]
  microsomal CLint: 79.9 µL/min/mg
[2]; [6]
  microsomal CLint: 59.7 µL/min/mg
[2]; [7]
  microsomal CLint: 75.2 µL/min/mg
[2]; [8]
  half-life: 17.3 min
[2]; [9]
  half-life: 23.2 min
[2]; [10]
  half-life: 18.4 min
[2]; Metabolic stability: Half life T1/2 (min), RLMs, mean and SD, three measurements
  half-life: 19.7 ± 2.5 min
[2]; [11]
  microsomal CLint: 72 ± 9 µL/min/mg
Porcine pancreatin
  SIF stability, Residual peptide Average: 97.68
[3]
  remaining at 8 h: 98 ± 11%
